The values below are quoted from earlier work in patent US20260048008A1, “ORGANOGELS FOR SUSTAINED DRUG DELIVERY, METHODS OF PREPARATION AND USE THEREOF” (OCULAR THERAPEUTIX, INC., priority 2022, published 2026).

Turning to `CC(C)OC(=O)CCC/C=C\C[C@@H]1[C@@H](/C=C/[C@@H](O)COc2cccc(C(F)(F)F)c2)[C@H](O)C[C@@H]1O` [Travoprost], the solubility in water result is listed as “practically insoluble in water”.
